Drawing on PubChem BioAssay (NCI), this text covers GI50 and TGI for 9 compounds.

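Assay format: 96-well plates, 48-hour exposure. Abbreviation: GI50, concentration required for 50% inhibition of growth. TGI is the concentration that stops growth completely.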

Among the test systems are EKVX NSCLC; HCT-116 colon; HL-60(TB) leukemia; IGROV1 ovarian; KM12 colon; MALME-3M melanoma; RXF 393 renal; SF-295 CNS; SK-OV-3 ovarian; SNB-75 CNS.
Assay in all cases: NCI tumour cell line growth inhibition, 48 h

Regarding `CC[C@@H](c1ccc(O)c(O)c1)[C@@H](CC)c1ccc(O)c(O)c1`, the GI50 in the assay on EKVX NSCLC was 13.4 µM; with HCT-116 colon, 4.23 µM; in the assay on HL-60(TB) leukemia, 2.66 µM; with IGROV1 ovarian, 9.57 µM; with KM12 colon, 18.5 µM; in the assay on MALME-3M melanoma, 3.91 µM. Moreover, the GI50 in the assay with RXF 393 renal is 2.57 µM; with SF-295 CNS, 27.4 µM; in the assay with SK-OV-3 ovarian, 29.4 µM; with SNB-75 CNS it was 17.7 µM. Also, the TGI in the assay with EKVX NSCLC worked out at 29.4 µM; with HCT-116 colon, 14.4 µM; with HL-60(TB) leukemia it was 6.21 µM; in the assay with IGROV1 ovarian it was 85.5 µM; in the assay on KM12 colon, 35.1 µM; in the assay on MALME-3M melanoma it was 19.8 µM. Besides, the TGI in the assay on RXF 393 renal turned out to be 7.59 µM; in the assay with SF-295 CNS it was 87 µM; in the assay with SK-OV-3 ovarian, 77.9 µM; in the assay on SNB-75 CNS, 41.6 µM.
Regarding `C/C=C/[C@@H]1O[C@@H]2COC(=O)C2=C[C@@H]1O`, the GI50 in the assay on EKVX NSCLC was 17.5 µM; in the assay with HCT-116 colon, 2.06 µM; in the assay with HL-60(TB) leukemia it was 10.6 µM; in the assay with IGROV1 ovarian, 18.6 µM; in the assay on KM12 colon, 20.5 µM; with MALME-3M melanoma, 1.96 µM. Also, the GI50 in the assay on RXF 393 renal was 15 µM; in the assay on SF-295 CNS, 29.9 µM; in the assay with SK-OV-3 ovarian, 25.9 µM; in the assay with SNB-75 CNS, 28.5 µM. Further, the TGI with EKVX NSCLC was 36.7 µM; in the assay with HCT-116 colon, 8.79 µM; in the assay on HL-60(TB) leukemia, greater than 100 µM; in the assay with IGROV1 ovarian, greater than 84 µM; with KM12 colon, 53.2 µM; with MALME-3M melanoma it was 6.85 µM. Also, the TGI in the assay on RXF 393 renal was 39.7 µM; in the assay with SF-295 CNS, greater than 56.4 µM; in the assay with SK-OV-3 ovarian, greater than 58.4 µM; with SNB-75 CNS, 54 µM.
As for `COc1c2ccccc2c(OC)c2[nH]c(=O)ccc12`, the GI50 with EKVX NSCLC is 2.83 µM; in the assay on HCT-116 colon, 4.98 µM; in the assay with HL-60(TB) leukemia it was 12.4 µM; in the assay with IGROV1 ovarian it was 5.73 µM; in the assay on KM12 colon, 3.11 µM; with MALME-3M melanoma, 0.578 µM. The GI50 was 16.3 µM with RXF 393 renal, 1.44 µM with SF-295 CNS, 65.1 µM with SK-OV-3 ovarian and 3.2 µM with SNB-75 CNS. The TGI with EKVX NSCLC is greater than 100 µM; in the assay with HCT-116 colon, greater than 100 µM; in the assay with HL-60(TB) leukemia, greater than 92.4 µM; with IGROV1 ovarian, greater than 100 µM; with KM12 colon it was greater than 27.5 µM; in the assay with MALME-3M melanoma, 1.78 µM. For the same compound, the TGI is greater than 100 µM in the assay on RXF 393 renal, 3.29 µM with SF-295 CNS, greater than 100 µM in the assay on SK-OV-3 ovarian and greater than 21.9 µM in the assay with SNB-75 CNS.
With `Br[Se]c1ccccn1`, the TGI in the assay on EKVX NSCLC stood at 31.5 µM; in the assay on HCT-116 colon, 33 µM; in the assay with HL-60(TB) leukemia, 40.3 µM; in the assay on IGROV1 ovarian, 31.5 µM; in the assay on KM12 colon it was 31.7 µM; in the assay on MALME-3M melanoma it was 31.2 µM. Moreover, the TGI is 31 µM in the assay on RXF 393 renal, 17 µM with SF-295 CNS, 34.8 µM in the assay with SK-OV-3 ovarian and 30.7 µM with SNB-75 CNS.
Take `N#CCCC[Si]12OCCN(CCO1)CCO2`: the TGI in the assay on EKVX NSCLC, in the assay with HCT-116 colon, with HL-60(TB) leukemia, in the assay on IGROV1 ovarian, in the assay on KM12 colon and with MALME-3M melanoma was greater than 100 µM throughout. In addition, the TGI in the assay with RXF 393 renal, in the assay with SF-295 CNS, with SK-OV-3 ovarian and with SNB-75 CNS was greater than 100 µM each time.
`O=C1CSC(=S)N1/N=C/c1ccc(Cl)c([N+](=O)[O-])c1`: the TGI was 76.9 µM in the assay on EKVX NSCLC; 48.2 µM in the assay on HCT-116 colon; 61 µM in the assay with HL-60(TB) leukemia; greater than 100 µM in the assay with IGROV1 ovarian; greater than 100 µM with KM12 colon; 40.4 µM in the assay on MALME-3M melanoma. Moreover, the TGI in the assay with RXF 393 renal was greater than 100 µM; in the assay on SF-295 CNS, 68.5 µM; in the assay with SK-OV-3 ovarian it was greater than 100 µM; in the assay with SNB-75 CNS it was greater than 100 µM.
For the compound `CC1(C)[C@@H](NOCCCN)CC[C@]2(C)[C@H]3C(=O)C=C4[C@@H]5C[C@](C)(C(=O)O)CC[C@]5(C)CC[C@@]4(C)[C@]3(C)CC[C@@H]12`, the GI50 in the assay with EKVX NSCLC is 14 µM; with HCT-116 colon, 2.95 µM; with HL-60(TB) leukemia it was 1.89 µM; in the assay on IGROV1 ovarian it was 12.2 µM; in the assay with KM12 colon, 3.27 µM; in the assay on MALME-3M melanoma it was 4.56 µM. Moreover, the GI50 with RXF 393 renal is 2.3 µM; in the assay on SF-295 CNS, 10.3 µM; in the assay with SK-OV-3 ovarian, 17.8 µM; with SNB-75 CNS, 12 µM. The TGI in the assay on EKVX NSCLC was found to be 44.8 µM; in the assay on HCT-116 colon it was 11.5 µM; in the assay with HL-60(TB) leukemia, 4.16 µM; with IGROV1 ovarian, 24.6 µM; with KM12 colon it was 12.6 µM; with MALME-3M melanoma, 16.9 µM. Also, the TGI was 5.31 µM with RXF 393 renal, 29.1 µM in the assay with SF-295 CNS, 67 µM in the assay on SK-OV-3 ovarian and 42.4 µM with SNB-75 CNS.
On to `OC(c1cc(C(F)(F)F)nc2c(C(F)(F)F)cccc12)C1CCCCN1` (stereo not given), for which the GI50 in the assay on EKVX NSCLC was 2.3 µM; with HCT-116 colon, 1.79 µM; in the assay on HL-60(TB) leukemia, 2.46 µM; in the assay on IGROV1 ovarian, 2.21 µM; in the assay on KM12 colon, 1.87 µM; in the assay with MALME-3M melanoma it was 2.6 µM. Moreover, the GI50 in the assay on RXF 393 renal was 1.71 µM; in the assay on SF-295 CNS, 2.04 µM; in the assay with SK-OV-3 ovarian it was 1.95 µM; in the assay on SNB-75 CNS it was 2.34 µM. Further, the TGI in the assay with EKVX NSCLC is 8.63 µM; in the assay with HCT-116 colon, 3.22 µM; in the assay with HL-60(TB) leukemia it was 4.6 µM; in the assay with IGROV1 ovarian, 5.58 µM; with KM12 colon, 3.59 µM; in the assay on MALME-3M melanoma it was 7.36 µM. Further, the TGI with RXF 393 renal came to 4.53 µM; in the assay on SF-295 CNS, 5.09 µM; with SK-OV-3 ovarian, 4.32 µM; in the assay on SNB-75 CNS, 11.7 µM.
Turning to `CC(=O)[O-].CC(=O)[O-].O=C(N/N=C/c1cc(Cl)cc(Cl)c1O)c1ccncc1.[Cu+2]`, the TGI with EKVX NSCLC, in the assay on HCT-116 colon, in the assay on HL-60(TB) leukemia, in the assay on IGROV1 ovarian, in the assay on KM12 colon and in the assay with MALME-3M melanoma was greater than 100 µM each time. Besides, the TGI in the assay on RXF 393 renal, in the assay with SF-295 CNS, in the assay on SK-OV-3 ovarian and with SNB-75 CNS was greater than 100 µM each time.
